Test results published in patent US9340493B2, “Hydroxamic acid derivatives useful as antibacterial agents” (Pfizer Inc., priority 2008, dated 2016).
In brackets after ≈: the same amount, converted by molar mass.

Tests used:
[1] = test system: P. aeruginosa UI-18; assay: MIC determination, P. aeruginosa UI-18; format: cell-based; conditions: Pseudomonas aeruginosa, UI18; wild-type; * = arithmetic mean of 2-6 MIC determinations; read-out: MIC (ug/mL) P. aeruginosa UI-18
Procedure, shortened: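 MIC by broth dilution following CLSI M7-A7 and M100-S18 guidelines, tested against wild-type P. aeruginosa UI-18.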

[2] = test system: Staphylococcus aureus ATCC 29213; assay: MIC determination, S. aureus ATCC 29213; format: cell-based; conditions: ATCC29213, CLSI quality control reference strain, * = arithmetic mean of 2-6 MIC determinations, read-out: MIC (ug/mL) S. aureus ATCC 29213
Procedure, shortened: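 MIC was measured by dilution susceptibility testing following CLSI guidelines (M7-A7; M100-S18). The test organism is the CLSI quality-control reference strain.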

[3] = test system: P. aeruginosa PAO280; assay: MIC determination, P. aeruginosa PAO280; format: cell-based; conditions: Pseudomonas aeruginosa, PAO280, read-out: MIC (ug/mL) P. aeruginosa PAO280
Procedure, shortened: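 Broth dilution MIC per CLSI M7-A7/M100-S18 guidelines. Strain PAO280 lacks efflux pumps MexAB-oprM, MexXY and MexZ.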

[4] = test system: Enterobacter aerogenes; assay: MIC determination, E. aerogenes; format: cell-based; conditions: Klebsiella aerogenes; quinolone-resistant, ESBL-expressing clinical isolate; * = arithmetic mean of 2-6 MIC determinations; read-out: MIC (ug/mL) E. aerogenes
Method: (§1) MIC determinations: The in vitro antibacterial activity of compounds described in the Examples was evaluated by minimum inhibitory concentration (MIC) testing according to Clinical and Laboratory Standards Institute (CLSI, formerly NCCLS) guidelines. See: Clinical and Laboratory Standards Institute. Methods for Dilution Antimicrobial Susceptibility Tests for Bacteria that Grow Aerobically; Approved Standard-Seventh Edition. CLSI document M7-A7 [ISBN 1-56238-587-9]. Clinical and Laboratory Standards Institute, 940 West Valley Road, Suite 1400, Wayne, Pa. 19087-1898 USA, 2006; also Clinical and Laboratory Standards Institute. Performance Standards for Antimicrobial Susceptibility Testing; Eighteenth Informational Supplement. CLSI document M100-S18 [ISBN1-56238-653-0]. Clinical and Laboratory Standards Institute.
(§2) The following bacterial strains were used:
Enterobacter aerogenes: Quinolone-resistant isolate, expresses extended-spectrum beta-lactamases (ESBL), clinical isolate;

[5] = test system: Escherichia coli EC-1; assay: MIC determination, E. coli EC-1; format: cell-based; conditions: EC1, EC-1: VOGEL, * = arithmetic mean of 2-6 MIC determinations, read-out: MIC (ug/mL) E. coli EC-1
Method: as §1, §2
Escherichia coli EC-1: VOGEL;

[6] = test system: Klebsiella pneumoniae; assay: MIC determination, K. pneumoniae; format: cell-based; conditions: ciprofloxacin-resistant, ESBL-expressing clinical isolate, * = arithmetic mean of 2-6 MIC determinations, read-out: MIC (ug/mL) K. pneumoniae
Method: as §1, §2
Klebsiella pneumoniae: Ciprofloxacin-resistant isolate, expresses extended-spectrum beta-lactamases (ESBL), clinical isolate;

[7] = target: T1, Pseudomonas aeruginosa LpxC enzyme (Pseudomonas aeruginosa, UniProt P47205); assay: IC50 assay, LpxC enzyme from P. aeruginosa; format: biochemical; conditions: 0.5 nM enzyme, 25° C., pH 8.0, 20 min; ** = average of 2-8 assays
T1 construct: made in house; host or cells: E. coli
T1 sequence (P47205 1-303): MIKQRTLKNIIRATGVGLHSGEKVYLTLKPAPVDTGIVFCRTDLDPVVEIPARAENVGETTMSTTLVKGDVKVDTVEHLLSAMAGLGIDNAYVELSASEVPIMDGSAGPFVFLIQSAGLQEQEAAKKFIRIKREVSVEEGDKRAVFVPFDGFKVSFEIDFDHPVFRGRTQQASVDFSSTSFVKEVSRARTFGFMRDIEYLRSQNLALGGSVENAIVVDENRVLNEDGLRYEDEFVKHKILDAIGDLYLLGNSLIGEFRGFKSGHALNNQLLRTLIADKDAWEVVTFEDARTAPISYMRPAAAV
Procedure, shortened: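 P. aeruginosa LpxC (0.5 nM, expressed in E. coli) reacted with 0.5 uM ³H-acetyl-labelled UDP-3-O-(R-3-hydroxydecanoyl)-GlcNAc in 50 mM sodium phosphate pH 8.0 with 1 mg/ml BSA at 25 °C for 20 min. Charcoal stopped the reaction, and filtrate radioactivity was counted by scintillation after no-enzyme background subtraction.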

[8] = test system: Acinetobacter baumanii/haemolyticus; assay: MIC determination, A. baumanii/haemolyticus; format: cell-based; conditions: Acinetobacter baumannii; multidrug-resistant clinical isolate; * = arithmetic mean of 2-6 MIC determinations; read-out: MIC (ug/mL) A. baumanii/haemolyticus
Method: as §1, §2
Acinetobacter baumanii/haemolyticus: Multidrug-resistant clinical isolate;

## CNC(=O)C(C)(OCc1ccc(-c2ccc(-c3cc(CO)no3)cc2)cc1)C(=O)NO (centres unmarked) [Example 49, N-hydroxy-2-({4′-[3-(hydroxymethyl)isoxazol-5-yl]biphenyl-4-yl}methoxy)-N′,2-dimethylmalonamide]
[1]
  MIC: 2 µg/mL (≈ 4.7 µM)
[2]
  MIC: > 16 µg/mL
[3]
  MIC: 0.045 µg/mL (≈ 0.106 µM)
[4]
  MIC: > 16 µg/mL
[5]
  MIC: 8 µg/mL (≈ 18.8 µM)
[6]
  MIC: > 16 µg/mL
[7]
  IC50: 0.00175 µM
[8]
  MIC: > 16 µg/mL

## C[C@@](OCc1ccc(-c2ccccc2)cc1)(C(=O)NO)[C@@H](O)c1ccc(CO)o1 [Example 14, (2S,3S)-2-(biphenyl-4-ylmethoxy)-N,3-dihydroxy-3-[5-(hydroxymethyl)-2-furyl]-2-methylpropanamide]
[1]
  MIC: 16 µg/mL (≈ 40.3 µM)
[2]
  MIC: > 64 µg/mL
[3]
  MIC: 0.5 µg/mL (≈ 1.26 µM)
[4]
  MIC: > 64 µg/mL
[5]
  MIC: > 64 µg/mL
[6]
  MIC: > 64 µg/mL
[7]
  IC50: 0.000582 µM
[8]
  MIC: > 64 µg/mL

## CCCc1ccc(-c2ccc(CO[C@](C)(C(=O)NO)[C@@H](O)c3cc(C)on3)cc2)cc1 [Example 30, (2S,3S)-N,3-dihydroxy-2-methyl-3-(5-methylisoxazol-3-yl)-2-[(4′-propylbiphenyl-4-yl)methoxy]propanamide]
[1]
  MIC: 4 µg/mL (≈ 9.42 µM)
[2]
  MIC: 32 µg/mL (≈ 75.4 µM)
[3]
  MIC: 1 µg/mL (≈ 2.36 µM)
[4]
  MIC: 16 µg/mL (≈ 37.7 µM)
[5]
  MIC: 2 µg/mL (≈ 4.71 µM)
[6]
  MIC: 4 µg/mL (≈ 9.42 µM)
[7]
  IC50: 0.000762 µM
[8]
  MIC: 2 µg/mL (≈ 4.71 µM)

## Cc1ccc(-c2ccc(CO[C@](C)(C(=O)NO)[C@@H](O)c3cc(C)on3)cc2)cc1 [Example 39, (2S,3S)-N,3-dihydroxy-2-methyl-2-[(4′-methylbiphenyl-4-yl)methoxy]-3-(5-methylisoxazol-3-yl)propanamide]
[1]
  MIC: 1 µg/mL (≈ 2.52 µM)
[2]
  MIC: > 64 µg/mL
[3]
  MIC: 0.03 µg/mL (≈ 0.0757 µM)
[4]
  MIC: 32 µg/mL (≈ 80.7 µM)
[5]
  MIC: 2 µg/mL (≈ 5.04 µM)
[6]
  MIC: 4 µg/mL (≈ 10.1 µM)
[7]
  IC50: 0.000589 µM
[8]
  MIC: 4 µg/mL (≈ 10.1 µM)

## C[S+]([O-])c1cc([C@H](O)[C@](C)(OCc2ccc(-c3ccc(F)cc3)cc2)C(=O)NO)no1 (stereo partly drawn) [Example 44, (2S,3S)-2-[(4′-fluorobiphenyl-4-yl)methoxy]-N,3-dihydroxy-2-methyl-3-[5-(methylsulfinyl)isoxazol-3-yl]propanamide]
[1]
  MIC: 1 µg/mL (≈ 2.23 µM)
[2]
  MIC: > 64 µg/mL
[3]
  MIC: 0.015 µg/mL (≈ 0.0334 µM)
[4]
  MIC: > 64 µg/mL
[5]
  MIC: 8 µg/mL (≈ 17.8 µM)
[6]
  MIC: 32 µg/mL (≈ 71.4 µM)
[7]
  IC50: 0.000283 µM
[8]
  MIC: 32 µg/mL (≈ 71.4 µM)

## Cc1cc(CNC(=O)C(C)(OCc2ccc(-c3ccc(-c4cc(CO)no4)cc3)cc2)C(=O)NO)no1 (centres unmarked) [Example 84, N-hydroxy-2-({4′-[3-(hydroxymethyl)isoxazol-5-yl]biphenyl-4-yl}methoxy)-2-methyl-N′-[(5-methylisoxazol-3-yl)methyl]malonamide]
[1]
  MIC: 2 µg/mL (≈ 3.95 µM)
[2]
  MIC: > 64 µg/mL
[3]
  MIC: 0.06 µg/mL (≈ 0.118 µM)
[4]
  MIC: 16 µg/mL (≈ 31.6 µM)
[5]
  MIC: 1 µg/mL (≈ 1.97 µM)
[6]
  MIC: 8 µg/mL (≈ 15.8 µM)
[7]
  IC50: 0.000861 µM
[8]
  MIC: > 64 µg/mL

## C[C@@](OCc1ccc(-c2ccccc2)cc1)(C(=O)NO)[C@@H](O)c1cncs1 [Example 21, (2S,3R)-2-(biphenyl-4-ylmethoxy)-N,3-dihydroxy-2-methyl-3-(1,3-thiazol-5-yl)propanamide]
[1]
  MIC: > 64 µg/mL
[2]
  MIC: > 64 µg/mL
[3]
  MIC: 4 µg/mL (≈ 10.4 µM)
[4]
  MIC: > 64 µg/mL
[5]
  MIC: > 64 µg/mL
[6]
  MIC: > 64 µg/mL
[7]
  IC50: 0.00823 µM
[8]
  MIC: > 64 µg/mL

## Cc1cccc(-c2ccc(COC(C)(C(=O)NO)C(=O)NCc3cc(C)on3)cc2)n1 (centres unmarked) [Example 89, N-hydroxy-2-methyl-N′-[(5-methylisoxazol-3-yl)methyl]-2-{[4-(6-methylpyridin-2-yl)benzyl]oxy}malonamide]
[1]
  MIC: > 64 µg/mL
[2]
  MIC: > 64 µg/mL
[3]
  MIC: 1 µg/mL (≈ 2.36 µM)
[4]
  MIC: > 64 µg/mL
[5]
  MIC: > 64 µg/mL
[6]
  MIC: > 64 µg/mL
[7]
  IC50: 0.0135 µM
[8]
  MIC: > 64 µg/mL

## Cc1ccc(-c2ccc(CO[C@](C)(C(=O)NO)[C@@H](O)c3cc(CO)on3)cc2)cc1 [Example 37, (2S,3S)-N,3-dihydroxy-3-[5-(hydroxymethyl)isoxazol-3-yl]-2-methyl-2-[(4′-methylbiphenyl-4-yl)methoxy]propanamide]
[1]
  MIC: 0.75 µg/mL (≈ 1.82 µM)
[2]
  MIC: > 64 µg/mL
[3]
  MIC: 0.015 µg/mL (≈ 0.0364 µM)
[4]
  MIC: 64 µg/mL (≈ 155 µM)
[5]
  MIC: 8 µg/mL (≈ 19.4 µM)
[6]
  MIC: 16 µg/mL (≈ 38.8 µM)
[7]
  IC50: 0.000476 µM
[8]
  MIC: 64 µg/mL (≈ 155 µM)

## C[C@@](OCc1ccc(-c2ccccc2)cc1)(C(=O)NO)[C@@H](O)c1ccccn1 [Example 17, (2S,3S)-2-(biphenyl-4-ylmethoxy)-N,3-dihydroxy-2-methyl-3-pyridin-2-ylpropanamide]
[1]
  MIC: 8 µg/mL (≈ 21.1 µM)
[2]
  MIC: > 64 µg/mL
[3]
  MIC: 0.25 µg/mL (≈ 0.661 µM)
[4]
  MIC: > 64 µg/mL
[5]
  MIC: 16 µg/mL (≈ 42.3 µM)
[6]
  MIC: > 64 µg/mL
[7]
  IC50: 0.0015 µM
[8]
  MIC: 32 µg/mL (≈ 84.6 µM)

## CC(CO)(OCc1ccc(-c2ccc(F)cc2F)cc1)C(=O)NO (centres unmarked) [Example 66, 2-[(2′,4′-difluorobiphenyl-4-yl)methoxy]-N,3-dihydroxy-2-methylpropanamide]
[1]
  MIC: 64 µg/mL (≈ 190 µM)
[2]
  MIC: > 64 µg/mL
[3]
  MIC: 1.5 µg/mL (≈ 4.45 µM)
[4]
  MIC: > 64 µg/mL
[5]
  MIC: > 64 µg/mL
[6]
  MIC: > 64 µg/mL
[7]
  IC50: 0.00332 µM
[8]
  MIC: > 64 µg/mL

## C[C@@](OCc1ccc(-c2ccccc2)cc1)(C(=O)NO)[C@@H](O)c1cc(S(C)(=O)=O)on1 [Example 43, (2S,3S)-2-(biphenyl-4-ylmethoxy)-N,3-dihydroxy-2-methyl-3-[5-(methylsulfonyl)isoxazol-3-yl]propanamide]
[1]
  MIC: 2 µg/mL (≈ 4.48 µM)
[2]
  MIC: 64 µg/mL (≈ 143 µM)
[3]
  MIC: 0.03 µg/mL (≈ 0.0672 µM)
[4]
  MIC: 64 µg/mL (≈ 143 µM)
[5]
  MIC: 4 µg/mL (≈ 8.96 µM)
[6]
  MIC: 16 µg/mL (≈ 35.8 µM)
[7]
  IC50: 0.000686 µM
[8]
  MIC: 64 µg/mL (≈ 143 µM)

## CC(OCc1ccc(-c2ccccc2)cc1)(C(=O)NO)C(=O)NCc1cc(-c2ccccc2)on1 (centres unmarked) [Example 67, 2-(biphenyl-4-ylmethoxy)-N-hydroxy-2-methyl-N′-[(5-phenylisoxazol-3-yl)methyl]malonamide]
[1]
  MIC: 4 µg/mL (≈ 8.48 µM)
[2]
  MIC: > 16 µg/mL
[3]
  MIC: 0.5 µg/mL (≈ 1.06 µM)
[4]
  MIC: > 16 µg/mL
[5]
  MIC: 16 µg/mL (≈ 33.9 µM)
[6]
  MIC: > 16 µg/mL
[7]
  IC50: 0.0032 µM
[8]
  MIC: 8 µg/mL (≈ 17 µM)
